# Earlier results as cited in patent publication US20240082224A1, “METHODS OF TREATING HEMATOLOGICAL MALIGNANCY USING NANOPARTICLE MTOR INHIBITOR COMBINATION THERAPY” (Abraxis BioScience, LLC, priority 2015, published 2024).
# Tests used:
# [1] = target: T1, ABCG2 (Homo sapiens, UniProt Q9UNQ0)
# T1 sequence (Q9UNQ0 1-655): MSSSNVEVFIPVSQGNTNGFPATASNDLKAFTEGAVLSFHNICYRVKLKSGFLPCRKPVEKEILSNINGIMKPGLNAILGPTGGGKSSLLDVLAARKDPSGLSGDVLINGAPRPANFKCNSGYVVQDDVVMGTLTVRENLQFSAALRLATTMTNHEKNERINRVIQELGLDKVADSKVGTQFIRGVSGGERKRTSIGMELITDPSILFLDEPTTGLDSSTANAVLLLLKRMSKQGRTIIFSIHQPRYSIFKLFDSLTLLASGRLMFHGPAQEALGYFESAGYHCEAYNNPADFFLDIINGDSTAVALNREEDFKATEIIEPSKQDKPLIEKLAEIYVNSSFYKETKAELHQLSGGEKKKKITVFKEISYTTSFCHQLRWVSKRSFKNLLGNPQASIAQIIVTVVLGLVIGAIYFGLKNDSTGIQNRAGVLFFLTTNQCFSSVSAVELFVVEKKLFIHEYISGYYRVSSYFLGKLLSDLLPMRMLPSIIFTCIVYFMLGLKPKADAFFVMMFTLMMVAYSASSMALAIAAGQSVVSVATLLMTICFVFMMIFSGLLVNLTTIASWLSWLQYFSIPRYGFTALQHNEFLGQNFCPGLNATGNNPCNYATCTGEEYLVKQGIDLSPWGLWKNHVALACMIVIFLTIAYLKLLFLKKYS
# [2] = target: ABCB1 (Homo sapiens, UniProt P08183)
# Chain of ABCB1 (P08183 whole entry, species assumed): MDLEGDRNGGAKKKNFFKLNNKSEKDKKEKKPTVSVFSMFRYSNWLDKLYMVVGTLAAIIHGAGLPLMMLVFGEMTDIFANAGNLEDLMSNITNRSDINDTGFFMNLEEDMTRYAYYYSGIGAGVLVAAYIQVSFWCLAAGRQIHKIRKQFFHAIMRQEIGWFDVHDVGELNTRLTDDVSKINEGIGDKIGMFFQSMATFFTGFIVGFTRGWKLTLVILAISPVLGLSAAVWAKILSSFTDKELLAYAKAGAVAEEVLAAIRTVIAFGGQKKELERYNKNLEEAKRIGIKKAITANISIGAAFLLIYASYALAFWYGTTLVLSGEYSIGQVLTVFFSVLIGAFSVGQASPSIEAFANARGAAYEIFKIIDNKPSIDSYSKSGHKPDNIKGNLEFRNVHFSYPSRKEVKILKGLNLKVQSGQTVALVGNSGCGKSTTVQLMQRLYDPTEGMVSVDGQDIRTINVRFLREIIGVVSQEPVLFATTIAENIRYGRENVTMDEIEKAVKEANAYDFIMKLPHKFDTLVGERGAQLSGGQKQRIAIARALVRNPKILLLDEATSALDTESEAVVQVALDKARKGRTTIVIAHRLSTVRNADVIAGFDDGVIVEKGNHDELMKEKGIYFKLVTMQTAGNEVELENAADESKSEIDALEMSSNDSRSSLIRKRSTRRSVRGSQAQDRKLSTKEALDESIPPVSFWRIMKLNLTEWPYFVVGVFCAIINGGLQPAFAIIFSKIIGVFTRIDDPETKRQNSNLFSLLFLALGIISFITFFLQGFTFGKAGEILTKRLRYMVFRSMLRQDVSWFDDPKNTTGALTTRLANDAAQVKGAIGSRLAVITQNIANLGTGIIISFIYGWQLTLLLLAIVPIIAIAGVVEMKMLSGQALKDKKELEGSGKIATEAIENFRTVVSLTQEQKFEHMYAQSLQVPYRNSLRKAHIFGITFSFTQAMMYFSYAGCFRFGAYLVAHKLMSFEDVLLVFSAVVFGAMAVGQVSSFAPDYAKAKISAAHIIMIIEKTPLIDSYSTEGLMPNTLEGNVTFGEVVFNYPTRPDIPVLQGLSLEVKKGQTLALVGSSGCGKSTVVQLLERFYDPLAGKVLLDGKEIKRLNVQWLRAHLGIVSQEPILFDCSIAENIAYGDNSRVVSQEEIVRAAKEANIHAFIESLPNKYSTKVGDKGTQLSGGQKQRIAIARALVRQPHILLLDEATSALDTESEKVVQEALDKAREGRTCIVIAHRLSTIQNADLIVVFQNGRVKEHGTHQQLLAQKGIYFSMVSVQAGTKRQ
# [3] = in vivo
# [4] = system: CML patients
Structure (SMILES),affinity for ABCG2 [1],affinity for ABCB1 [2],brain penetration [3],CML patients who respond ([4]; imatinib),patients progressing to advanced disease ([4]; within 5 years)
COc1ccc(COc2cc3oc(=O)c4cc(C(C)O)ccc4c3cc2OC)cc1 (centres unmarked) [Palomid 529],lacks affinity,lacks affinity,good brain penetration,–,–
Cc1ccc(NC(=O)c2ccc(CN3CCN(C)CC3)cc2)cc1Nc1nccc(-c2cccnc2)n1 [imatinib],–,–,–,80%,under 3%
